In this experiment the target is T1, HEK cells stably transfected with tetracycline inducible hNR1 and hNR2A (Homo sapiens, UniProt Q05586+Q12879).
T1 construct: expressed in transfected cells; host or cells: HEK cells, stably transfected, tetracycline/doxycycline inducible
Nature of the experiment: Assay 1: Cell-Based Assay, cytosolic calcium response to positive allosteric modulators (with 30 μM glycine and 300 nM L-glutamate, EC30). As to conditions: Table 2; for EC50: cytosolic calcium response, with 30 μM glycine and 300 nM L-glutamate (EC30), — = no plateau was reached; for Max %: responses scaled relative to 100 μM L-glutamate maximal response (100%) and 0 μM L-glutamate (0%). The method in brief: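 Cells induced 24 h with 7.5 μg mL^−1 doxycycline plus 500 μM (+)-ketamine, loaded 60 min at 37 °C with calcium dye in Mg-free HBSS (1.8 mM Ca, probenecid, 10 μM (+)-ketamine, pH 7.15). Peak RFU over 5 min after compound addition, scaled to 100 μM L-glutamate (100%) and 0 μM (0%); four-parameter Hill fit for EC50, max % if no plateau.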

Results on 32 compounds are retold here after US9988400B2 (Genentech, Inc., priority 2013, dated 2018).

Each structure is given as a SMILES string.

T1 sequence (Q12879 23-1464, other chains not shown): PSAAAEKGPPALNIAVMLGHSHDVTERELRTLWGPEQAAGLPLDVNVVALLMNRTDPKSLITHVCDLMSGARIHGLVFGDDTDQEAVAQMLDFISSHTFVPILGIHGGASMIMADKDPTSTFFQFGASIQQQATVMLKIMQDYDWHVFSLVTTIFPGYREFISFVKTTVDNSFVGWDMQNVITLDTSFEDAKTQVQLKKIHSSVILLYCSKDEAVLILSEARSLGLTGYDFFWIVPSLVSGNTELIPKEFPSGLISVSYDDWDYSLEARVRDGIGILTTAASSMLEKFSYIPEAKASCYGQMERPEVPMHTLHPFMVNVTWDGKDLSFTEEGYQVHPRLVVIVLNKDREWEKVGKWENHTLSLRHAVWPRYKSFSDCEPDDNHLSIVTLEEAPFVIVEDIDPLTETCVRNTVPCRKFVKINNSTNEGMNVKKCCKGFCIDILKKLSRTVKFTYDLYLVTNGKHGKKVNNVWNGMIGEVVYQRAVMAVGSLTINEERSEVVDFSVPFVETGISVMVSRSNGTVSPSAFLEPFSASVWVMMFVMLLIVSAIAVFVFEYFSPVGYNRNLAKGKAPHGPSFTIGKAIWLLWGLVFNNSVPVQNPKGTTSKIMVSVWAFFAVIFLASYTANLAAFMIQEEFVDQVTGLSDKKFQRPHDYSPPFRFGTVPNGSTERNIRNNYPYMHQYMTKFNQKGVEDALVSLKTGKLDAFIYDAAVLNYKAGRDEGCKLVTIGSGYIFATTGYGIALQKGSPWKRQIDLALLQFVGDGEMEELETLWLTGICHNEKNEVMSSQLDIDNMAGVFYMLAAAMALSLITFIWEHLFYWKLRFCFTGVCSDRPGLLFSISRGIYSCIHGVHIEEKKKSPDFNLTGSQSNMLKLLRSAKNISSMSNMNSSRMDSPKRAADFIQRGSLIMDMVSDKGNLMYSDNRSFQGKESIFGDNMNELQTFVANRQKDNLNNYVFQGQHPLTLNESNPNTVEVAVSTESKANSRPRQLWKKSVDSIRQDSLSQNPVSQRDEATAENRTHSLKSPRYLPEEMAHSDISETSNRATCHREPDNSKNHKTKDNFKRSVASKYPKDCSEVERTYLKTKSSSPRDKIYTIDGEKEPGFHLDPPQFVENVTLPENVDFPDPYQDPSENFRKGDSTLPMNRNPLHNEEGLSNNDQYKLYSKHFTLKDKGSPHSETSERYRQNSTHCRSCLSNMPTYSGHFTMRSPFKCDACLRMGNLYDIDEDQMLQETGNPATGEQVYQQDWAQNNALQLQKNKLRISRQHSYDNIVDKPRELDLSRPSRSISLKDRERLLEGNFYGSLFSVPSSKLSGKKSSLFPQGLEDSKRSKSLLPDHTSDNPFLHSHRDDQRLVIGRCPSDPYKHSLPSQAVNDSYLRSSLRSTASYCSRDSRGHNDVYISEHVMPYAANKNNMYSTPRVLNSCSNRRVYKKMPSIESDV

In general, EC50 refers to the midpoint of the concentration-response curve. For `CNC(=O)Cc1c(C)sc2nc(COc3ccc(F)cc3)cc(=O)n12` [Example 2.6, 2-(7-((4-fluorophenoxy)methyl)-2-methyl-5-oxo-5H-thiazolo[3,2-a]pyrimidin-3-yl)-N-methylacetamide], the EC50 turned out to be 19.6 µM and the Max % turned out to be 59.9%. For `Cc1sc2nc(COc3ccc(F)cc3)cc(=O)n2c1C(=O)C1CC1` [Example 2.7, 3-Cyclopropanecarbonyl-7-(4-fluorophenoxymethyl)-2-methyl-5H-[1,3]thiazolo[3,2-a]pyrimidin-5-one], in that order: 26 µM and 61.3%. Consider `C/C(=N\O)c1c(C)sc2nc(COc3ccc(F)cc3)cc(=O)n12` [Example 2.8, 7-(4-Fluorophenoxymethyl)-3-[1-(hydroxyimino)ethyl]-2-methyl-5H-[1,3]thiazolo[3,2-a]pyrimidin-5-one], for which the Max % is given as 137%. Same read-out and setting: to `Cc1sc2nc(COc3ccc(F)cc3)cc(=O)n2c1C(=O)C1COC1` [Example 2.9, 7-((4-fluorophenoxy)methyl)-2-methyl-3-(oxetane-3-carbonyl)-5H-thiazolo[3,2-a]pyrimidin-5-one] belongs 56.4%. The same measure, in the same setting: to `Cc1sc2nc(COc3ccc(F)cc3)cc(=O)n2c1C(O)C(F)(F)F` (centres unmarked) [Example 2.10, 7-((4-fluorophenoxy)methyl)-2-methyl-3-(2,2,2-trifluoro-1-hydroxyethyl)-5H-thiazolo[3,2-a]pyrimidin-5-one] belongs 119%. Turning to `Cc1sc2nc(COc3ccc(F)cc3)cc(=O)n2c1C(=O)C(F)(F)F` [Example 2.11, 7-(4-Fluorophenoxymethyl)-2-methyl-3-(trifluoroacetyl)-5H-[1,3]thiazolo[3,2-a]pyrimidin-5-one], the Max % amounted to 87.4%. In the case of `CCNC(=O)c1c(C2CC2)sc2nc(COc3ccc(F)cc3)cc(=O)n12` [Example 3.1, 2-cyclopropyl-N-ethyl-7-((4-fluorophenoxy)methyl)-5-oxo-5H-thiazolo[3,2-a]pyrimidine-3-carboxamide], the EC50 was determined as 41 µM and the Max % is given as 56.2%. The matching figures for `CNC(=O)c1c(C(F)(F)F)sc2nc(COc3ccc(F)cc3)cc(=O)n12` [Example 3.2, 7-(4-Fluorophenoxymethyl)-N-methyl-5-oxo-2-(trifluoromethyl)-5H-[1,3]thiazolo[3,2-a]pyrimidine-3-carboxamide]: 10.1 µM and 42.7%. As for `CNC(=O)c1c(C2CC2)sc2nc(COc3ccc(F)cc3)cc(=O)n12` [Example 3.3, 2-Cyclopropyl-7-(4-fluorophenoxymethyl)-N-methyl-5-oxo-5H-[1,3]thiazolo[3,2-a]pyrimidine-3-carboxamide], the Max % was found to be 61.8%. Still for that read-out and setting: to `CCNC(=O)c1c(C(F)(F)F)sc2nc(COc3ccc(F)cc3)cc(=O)n12` [Example 3.4, N-Ethyl-7-(4-fluorophenoxymethyl)-5-oxo-2-(trifluoromethyl)-5H-[1,3]thiazolo[3,2-a]pyrimidine-3-carboxamide] belongs 44.6%. Take `CNC(=O)c1csc2nc(COc3ccc(F)cc3)cc(=O)n12` [Example 3.5, 7-((4-fluorophenoxy)methyl)-N-methyl-5-oxo-5H-thiazolo[3,2-a]pyrimidine-3-carboxamide]: the Max % came to 65.6%.

With `CCNC(=O)c1c(C)sc2nc(COc3ccc(F)cn3)cc(=O)n12` [Example 3.6, N-ethyl-7-[[(5-fluoropyridin-2-yl)oxy]methyl]-2-methyl-5-oxo-5H-[1,3]thiazolo[3,2-a]pyrimidine-3-carboxamide], the Max % is on record as 68%. Take `Cc1sc2nc(COc3ccc(F)cc3)cc(=O)n2c1-c1cncnc1` [Example 4.5, 7-((4-fluorophenoxy)methyl)-2-methyl-3-(pyrimidin-5-yl)-5H-thiazolo[3,2-a]pyrimidin-5-one]: the EC50 was 5.7 µM and the Max % is 42.2%.

As to `Cc1sc2nc(COc3ccc(F)cc3)cc(=O)n2c1-c1ncco1` [Example 4.11, 7-((4-fluorophenoxy)methyl)-2-methyl-3-(oxazol-2-yl)-5H-thiazolo[3,2-a]pyrimidin-5-one], the concentration giving a half-maximal response (EC50) came out at 4.8 µM and the Max % was 40.8%. The matching figures for `Cc1sc2nc(COc3ccc(F)cc3)cc(=O)n2c1-c1ccn[nH]1` [Example 4.15, 7-((4-fluorophenoxy)methyl)-2-methyl-3-(1H-pyrazol-5-yl)-5H-thiazolo[3,2-a]pyrimidin-5-one]: 13.9 µM and 50%. On to `Cc1sc2nc(COc3ccc(F)cc3)cc(=O)n2c1-c1nnc[nH]1` [Example 4.16, 7-((4-fluorophenoxy)methyl)-2-methyl-3-(4H-1,2,4-triazol-3-yl)-5H-thiazolo[3,2-a]pyrimidin-5-one], for which the Max % is 46.2%. For `Cc1sc2nc(COc3ccc(F)cc3)cc(=O)n2c1C1CC1` [Example 4.17, 3-cyclopropyl-7-[(4-fluorophenoxy)methyl]-2-methyl-thiazolo[3,2-a]pyrimidin-5-one], the Max % came out at 40.3%. As for `Cc1sc2nc(COc3ccc(F)cc3)cc(=O)n2c1C1CC1C` (centres unmarked) [Example 4.25, 7-(4-Fluorophenoxymethyl)-2-methyl-3-(2-methylcyclopropyl)-5H-[1,3]thiazolo[3,2-a]pyrimidin-5-one], the EC50 is 2.8 µM and the Max % was 109%. Consider `COCC1CC1c1c(C)sc2nc(COc3ccc(F)cc3)cc(=O)n12` (centres unmarked) [Example 4.27, 7-(4-Fluorophenoxymethyl)-3-[2-(methoxymethyl)cyclopropyl]-2-methyl-5H-[1,3]thiazolo[3,2-a]pyrimidin-5-one], for which the Max % was determined as 103%. Regarding `Cc1sc2nc(COc3ccc(F)cc3)cc(=O)n2c1C1CC1CF` (centres unmarked) [Example 4.28, 3-(2-(fluoromethyl)cyclopropyl)-7-((4-fluorophenoxy)methyl)-2-methyl-5H-thiazolo[3,2-a]pyrimidin-5-one], the 50% effective concentration (EC50) is 3.4 µM and the Max % came out at 89%. Take `Cc1sc2nc(COc3ccc(F)cc3)cc(=O)n2c1CCCO` [Example 4.30, 7-(4-Fluorophenoxymethyl)-3-(3-hydroxypropyl)-2-methyl-5H-[1,3]thiazolo[3,2-a]pyrimidin-5-one]: the EC50 came to 15.5 µM and the Max % is reported as 75.4%. In the case of `COCc1c(C)sc2nc(COc3ccc(F)cc3)cc(=O)n12` [Example 4.31, 7-(4-Fluorophenoxymethyl)-3-(methoxymethyl)-2-methyl-5H-[1,3]thiazolo[3,2-a]pyrimidin-5-one], the Max % was 43.3%. Take `Cc1sc2nc(COc3ccc(F)cc3)cc(=O)n2c1C1(O)COC1` [Example 4.32, 7-((4-fluorophenoxy)methyl)-3-(3-hydroxyoxetan-3-yl)-2-methyl-5H-thiazolo[3,2-a]pyrimidin-5-one]: the Max % is on record as 50.2%. Regarding `Cc1sc2nc(COc3ccc(F)cc3)cc(=O)n2c1C(C)CCO` (centres unmarked) [Example 4.33, 7-(4-Fluorophenoxymethyl)-3-(4-hydroxybutan-2-yl)-2-methyl-5H-[1,3]thiazolo[3,2-a]pyrimidin-5-one], the EC50 is 13.8 µM and the Max % is recorded as 121%. Turning to `Cc1sc2nc(COc3ccc(F)cc3)cc(=O)n2c1C1CC1C(C)(C)O` (centres unmarked) [Example 4.34, 7-(4-Fluorophenoxymethyl)-3-[2-(2-hydroxypropan-2-yl)cyclopropyl]-2-methyl-5H-[1.3]thiazolo[3,2-a]pyrimidin-5-one], the Max % was 49.2%.

For `CCN(Cc1cc(=O)n2c(-c3cncnc3)c(C)sc2n1)c1ccc(F)cc1` [Example 5.1, 7-[(N-ethyl-4-fluoro-anilino)methyl]-2-methyl-3-pyrimidin-5-yl-thiazolo[3,2-a]pyrimidin-5-one], the EC50 amounted to 0.56 µM and the Max % worked out at 145.1%. For `Cc1sc2nc(CN(C)c3ccc(F)cc3)cc(=O)n2c1-c1cncnc1` [Example 5.2, 7-(((4-fluorophenyl)(methyl)amino)methyl)-2-methyl-3-(pyrimidin-5-yl)-5H-thiazolo[3,2-a]pyrimidin-5-one], in that order: 5.7 µM and 148%. For `Cc1sc2nc(CN(CC(F)(F)F)c3ccc(F)cc3)cc(=O)n2c1-c1cncnc1` [Example 5.3, 7-(((4-fluorophenyl)(2,2,2-trifluoroethyl)amino)methyl)-2-methyl-3-(pyrimidin-5-yl)-5H-thiazolo [3,2-a]pyrimidin-5-one], in that order: 2.2 µM and 177%. The matching figures for `CCN(Cc1cc(=O)n2c(-c3cncnc3)c(C)sc2n1)c1ccc(F)c(F)c1` [Example 5.4, 7-(((3,4-difluorophenyl)(ethyl)amino)methyl)-2-methyl-3-(pyrimidin-5-yl)-5H-thiazolo[3,2-a]pyrimidin-5-one]: 0.956 µM and 172%. For `CCN(Cc1cc(=O)n2c(-c3cncnc3)c(C)sc2n1)c1cccc(F)c1` [Example 5.5, 7-((ethyl(3-fluorophenyl)amino)methyl)-2-methyl-3-(pyrimidin-5-yl)-5H-thiazolo[3,2-a]pyrimidin-5-one], the EC50 worked out at 2.4 µM and the Max % is 168%. For `Cc1sc2nc(CN(CC(F)F)c3ccc(F)cc3)cc(=O)n2c1-c1cncnc1` [Example 5.6, 7-(((2,2-difluoroethyl)(4-fluorophenyl)amino)methyl)-2-methyl-3-(pyrimidin-5-yl)-5H-thiazolo[3,2-a] pyrimidin-5-one], the half-maximal effective concentration (EC50) was determined as 0.766 µM and the Max % was 164%.

For the compound `CCN(Cc1cc(=O)n2c(-c3nccs3)c(C)sc2n1)c1ccc(F)cc1` [Example 5.8, 7-((ethyl(4-fluorophenyl)amino)methyl)-2-methyl-3-(thiazol-2-yl)-5H-thiazolo[3,2-a]pyrimidin-5-one], the EC50 stood at 0.669 µM and the Max % was determined as 156%.
